This is an account of results in patent publication US4029688A, “Carbamic pesticidal compositions” (priority 1974, dated 1977).

Converted amounts (≈) assume the structure as drawn.

In the first series the test system is southern armyworm (Prodenia eridania, (Cram.)). Put plainly: Southern Armyworm Leaf Spray Test. Type of series: in vivo. The note with it: Spodoptera eridania; Table II; read-out: Armyworm LD50. How it is done:
(§1) Suspensions of the test compounds were prepared by dissolving one gram of compound in 50 milliliters of acetone in which had been dissolved 0.1 gram (10 percent of the weight of compound) of an alkylphenoxy polyethoxyethanol surfactant, as an emulsifying or dispersing agent. The resulting solution was mixed into 150 milliliters of water to give roughly 200 milliliters of a suspension containing the compound in finely divided form. The thus-prepared stock suspension contained 0.5 percent by weight of compound. The test concentrations in parts per million by weight employed in the tests described hereinbelow were obtained by appropriate dilutions of the stock suspension with water. The test procedures were as follows:
Larvae of the southern armyworm (Prodenia eridania, (Cram.)), reared on Tendergreen bean plants at a temperature of 80°±5° F. and a relative humidity of 50±5 percent, constituted the test insects.
The test compounds were formulated by diluting the stock suspension with water to give a suspension containing 500 parts of test compound per million parts of final formulation. Potted Tendergreen bean plants of standard height and age were placed on a revolving turntable and sprayed with 100-110 milliliters of test compound formulation by use of a DeVilbiss spray gun set at 10 psig air pressure. This application, which lasted 25 seconds, was sufficient to wet plants to run-off. As a control, 100-110 milliliters of a water-acetone-emulsifier solution containing no test compound were also sprayed on infested plants. When dry, the paired leaves were separated and each one was placed in a 9 centimeter Petri dish lined with moistened filter paper. Five randomly selected larvae were introduced into each dish and the dishes were closed. The closed dishes were labeled and held at 80-85° F. for three days. Although the larvae could easily consume the whole leaf within twenty-four hours, no more food was added. Larvae which were unable to move the length of the body, even upon stimulation by prodding, were considered dead. Percent mortality was recorded for various concentration levels.
(§2) In the tests described above, the pesticidal activity of the compounds against aphid, mite, Southern Armyworm, Bean Beetle, house fly and nematode was rated as follows:
(§3) Comparison tests were conducted to assess the biological and chemical properties of certain representative species of the claimed invention in relation to their corresponding N-methyl carbamate compositions. The test procedures described above were employed in these experiments in order to determine the LD50 (number of parts per million of active ingredients required to achieve fifty percent mortality of the insects tested) for each of the compositions tested. In the case of the aphid and mite tests a side by side comparison was made of the N-methyl carbamate composition versus the corresponding perhalomethylsulfenyl derivative.
With `CNC(=O)ON=CC(C)(C)C#N` [drawing 22 R=H, X=CN, reference compound], the LC50 was 55 µg/mL (≈ 325 µM).
`CNC(=O)ON=CC(C)(C)[N+](=O)[O-]` [drawing 22 R=H, X=NO2, reference compound]: the LC50 stood at 55 µg/mL (≈ 291 µM).
Same read-out and setting: the figure for `CN(SC(F)(F)F)C(=O)ON=CC(C)(C)C#N` [drawing 22 R=SCF3, X=CN, 2-Methyl-2-cyanopropionaldehyde O-(N-methyl-N-trifluoromethanesulfenylcarbamoyl)oxime] is 300 µg/mL (≈ 1110 µM); for `CNC(=O)ON=C(C)SCCC#N` [drawing 23 R=H, reference compound] it is 5 µg/mL (≈ 24.8 µM).

Test system in the next series: not listed separately
Description: Chemical stability. It counts as physicochemical. The settings on record: Table II.
`CNC(=O)ON=CC(C)(C)C#N` [drawing 22 R=H, X=CN, reference compound]: the Stability result is “unstable”.
The same measure, in the same setting: the entry for `CNC(=O)ON=CC(C)(C)[N+](=O)[O-]` [drawing 22 R=H, X=NO2, reference compound] is “unstable”; for `CN(SC(F)(F)F)C(=O)ON=CC(C)(C)C#N` [drawing 22 R=SCF3, X=CN, 2-Methyl-2-cyanopropionaldehyde O-(N-methyl-N-trifluoromethanesulfenylcarbamoyl)oxime] it is “stable”; for `CNC(=O)ON=C(C)SCCC#N` [drawing 23 R=H, reference compound] it is “stable”.

The test system of a further series is bean aphid (Aphis fabae Scop.). Description: Bean Aphid Foliage Spray Test. Type of series: in vivo. The note with it: Aphis fabae, foliar; Table II, side by side comparison; read-out: Aphids LD50. As to the method:
as §1
Adults and nymphal stages of the bean aphid (Aphis fabae Scop.) reared on potted dwarf nasturtium plants at 65°-70° F. and 50-70 percent relative humidity, constituted the test insects. For testing purposes, the number of aphids per pot was standardized to 100-150 by trimming plants containing excess aphids.
The test compounds were formulated by diluting the stock suspension with water to give a suspension containing 500 parts of test compound per million parts of final formulation.
The potted plants (one pot per compound tested) infested with 100-150 aphids, were placed on a revolving turntable and sprayed with 100-110 milliliters of test compound formulation by use of a DeVilbiss spray gun set at 40 psig. air pressure. This application, which lasted 25 seconds, was sufficient to wet the plants to run-off. As a control, 100-110 milliliters of a water-acetone-emulsifier solution containing no test compound were also sprayed on infested plants. After spraying, the pots were placed on their sides on a sheet of white standard mimeograph paper which had been previously ruled to facilitate counting. Temperature and humidity in the test room during the 24 hour holding period were 65°-70° F. and 50-70 percent, respectively. Aphids which fell onto the paper and were unable to remain standing after being uprighted were considered dead. Aphids remaining on the plants were observed closely for movement and those which were unable to move the length of the body upon stimulation by prodding were considered dead. Percent mortality was recorded for various concentration levels.
as §2, §3
For the compound `CNC(=O)ON=CC(C)(C)C#N` [drawing 22 R=H, X=CN, reference compound], the LC50 was found to be 12 µg/mL (≈ 70.9 µM).
With `CNC(=O)ON=CC(C)(C)[N+](=O)[O-]` [drawing 22 R=H, X=NO2, reference compound], the LC50 was 6 µg/mL (≈ 31.7 µM).
For the compound `CN(SC(F)(F)F)C(=O)ON=CC(C)(C)C#N` [drawing 22 R=SCF3, X=CN, 2-Methyl-2-cyanopropionaldehyde O-(N-methyl-N-trifluoromethanesulfenylcarbamoyl)oxime], the LC50 was 38 µg/mL (≈ 141 µM).
The same measure, in the same setting: the figure for `CNC(=O)ON=C(C)SCCC#N` [drawing 23 R=H, reference compound] is 8 µg/mL (≈ 39.8 µM).

The next series deals with Mexican bean beetle (Epilachna varivestis, Muls.). Put plainly: Mexican Bean Beetle Leaf Spray Test. The settings on record: Epilachna varivestis; Table II; read-out: Beetle LD50. Type of series: in vivo. As to the method: as §1
Fourth instar larvae of the Mexican bean beetle (Epilachna varivestis, Muls.), reared on Tendergreen bean plants at a temperature of 80°±5° F. and 50±5 percent relative humidity, were the test insects.
The test compounds were formulated by diluting the stock suspension with water to give a suspension containing 500 parts of test compound per million parts of final formulation. Potted Tendergreen bean plants of standard height and age were placed on a revolving turntable and sprayed with 100-110 milliliters of test compound formulation by use of a DeVilbiss spray gun set at 10 psig air pressure. This application, which lasted 25 seconds, was sufficient to wet plants to run-off. As a control, 100-110 milliliters of a water-acetone-emulsifier solution containing no test compound were also sprayed on infested plants. When dry, the paired leaves were separated and each was placed in a 9 centimeter Petri dish lined with moistened filter paper. Five randomly selected larvae were introduced into each dish, and the dishes were closed. The closed dishes were labeled and held at a temperature of 80°±5° F. for three days. Although the larvae could easily consume the leaf within 24 to 48 hours, no more food was added. Larvae which were unable to move the length of the body, even upon stimulation, were considered dead.
as §2, §3
For `CNC(=O)ON=CC(C)(C)C#N` [drawing 22 R=H, X=CN, reference compound], the LC50 turned out to be 65 µg/mL (≈ 384 µM).
Consider `CNC(=O)ON=CC(C)(C)[N+](=O)[O-]` [drawing 22 R=H, X=NO2, reference compound], for which the LC50 was 80 µg/mL (≈ 423 µM).
Turning to `CN(SC(F)(F)F)C(=O)ON=CC(C)(C)C#N` [drawing 22 R=SCF3, X=CN, 2-Methyl-2-cyanopropionaldehyde O-(N-methyl-N-trifluoromethanesulfenylcarbamoyl)oxime], the LC50 was determined as 40 µg/mL (≈ 149 µM).
Still for that read-out and setting: the figure for `CNC(=O)ON=C(C)SCCC#N` [drawing 23 R=H, reference compound] is 25 µg/mL (≈ 124 µM).

The test system of another series is two-spotted mite (Tetranychus urticae Koch). Description: Mite Foliage Spray Test. The note with it: Tetranychus urticae, foliar; Table II, side by side comparison; read-out: Mites Spray LD50. It counts as in vivo. As to the method:
as §1
Adults and numphal stages of the two-spotted mite (Tetranychus urticae Koch), reared on Tendergreen bean plants at 80±5 percent relative humidity, were the test organisms. Infested leaves from a stock culture were placed on the primary leaves of two bean plants six to eight inches in height, growing in a 21/2 inch clay pot. 150 -200 Mites, a sufficient number for testing, transferred from the excised leaves to the fresh plants in a period of twenty-four hours. Following the twenty-four hour transfer period, the excised leaves were removed from the infested plants. The test compounds were formulated by diluting the stock suspension with water to give a suspension containing 500 parts of test compound per million parts of final formulation. The potted plants (one pot per compound) were placed on a revolving turntable and sprayed with 100-110 milliliters of test compound formulation by use of a DeVilbiss spray gun set at 40 psig. air pressure. This application, which lasted 25 seconds, was sufficient to wet the plants to run-off. As a control, 100-110 milliliters of a water solution containing acetone and emulsifier in the same concentrations as the test compound formulation, but containing no test compound, were also sprayed on infested plants. The sprayed plants were held at 80±5 percent relative humidity for six days, after which a mortality count of motile forms was made. Microscopic examination for motile forms was made on the leaves of the test plants. Any individual which was capable of locomotion upon prodding was considered living.
as §2, §3
Regarding `CNC(=O)ON=CC(C)(C)C#N` [drawing 22 R=H, X=CN, reference compound], the LC50 was found to be 40 µg/mL (≈ 236 µM).
Still for that read-out and setting: the figure for `CNC(=O)ON=CC(C)(C)[N+](=O)[O-]` [drawing 22 R=H, X=NO2, reference compound] is 32 µg/mL (≈ 169 µM); for `CN(SC(F)(F)F)C(=O)ON=CC(C)(C)C#N` [drawing 22 R=SCF3, X=CN, 2-Methyl-2-cyanopropionaldehyde O-(N-methyl-N-trifluoromethanesulfenylcarbamoyl)oxime] it is 90 µg/mL (≈ 334 µM); for `CNC(=O)ON=C(C)SCCC#N` [drawing 23 R=H, reference compound] it is 8 µg/mL (≈ 39.8 µM).

A further series has as its system house flies (Musca domestica, L.). Description: Fly Bait Test. Type of series: in vivo. The note with it: Musca domestica; Table II; read-out: Housefly LD50. How it is done:
as §1
Four to six day old adult house flies (Musca domestica, L.), reared according to the specifications of the Chemical Specialties Manufacturing Association (Blue Book, McNair-Dorland Co., N. Y. 1954; pages 243-244, 261) under controlled conditions of 80°±5° F. and 50±5 percent relative humidity, were the test insects. The flies were immobilized by anesthetizing with carbon dioxide and twenty-five immobilized individuals, males and females, were transferred to a cage consisting of a standard food strainer about five inches in diameter which was inverted over a wrapping-paper-covered surface. The test compounds were formulated by diluting the stock suspension with a 10 percent (by weight) sugar solution to give a suspension containing 500 parts of test compound per million parts of final formulation, by weight. Ten milliliters of the test formulation were added to a souffle cup containing a one-inch square of an absorbent cotton pad. This bait cup was introduced and centered on the blotting paper under the food strainer prior to admitting the anesthetized flies. The caged flies were allowed to feed on the bait for twenty-four hours, at a temperature of 80°±5° F. and the relative humidity of 50±5 percent.
as §2, §3
With `CNC(=O)ON=CC(C)(C)C#N` [drawing 22 R=H, X=CN, reference compound], the LC50 stood at 3 µg/mL (≈ 17.7 µM).
For the compound `CNC(=O)ON=CC(C)(C)[N+](=O)[O-]` [drawing 22 R=H, X=NO2, reference compound], the LC50 was 3 µg/mL (≈ 15.9 µM).
For `CN(SC(F)(F)F)C(=O)ON=CC(C)(C)C#N` [drawing 22 R=SCF3, X=CN, 2-Methyl-2-cyanopropionaldehyde O-(N-methyl-N-trifluoromethanesulfenylcarbamoyl)oxime], the LC50 came to 14 µg/mL (≈ 52 µM).
`CNC(=O)ON=C(C)SCCC#N` [drawing 23 R=H, reference compound]: the LC50 amounted to 2 µg/mL (≈ 9.94 µM).

Test system in another series: not listed separately
Put plainly: Peroral toxicity to mammals (rat). The settings on record: in vivo, po, Table II. As to the method: Certain of these compositions were also evaluated to determine their peroral toxicity to mammals. The animal selected for this experiment was the rat. The test results obtained are expressed in terms of the number of milligrams of composition per kilogram of weight of the animal required to achieve a mortality rate of 50 percent (LD50).
Regarding `CNC(=O)ON=CC(C)(C)C#N` [drawing 22 R=H, X=CN, reference compound], the 50% lethal dose (LD50) (usually the dose at which mortality reaches 50%) amounted to 9.5 mg/kg.
Same read-out and setting: the figure for `CNC(=O)ON=CC(C)(C)[N+](=O)[O-]` [drawing 22 R=H, X=NO2, reference compound] is 4 mg/kg; for `CNC(=O)ON=C(C)SCCC#N` [drawing 23 R=H, reference compound] it is 7.7 mg/kg.
